Like-named read-outs stand apart in the source and are kept apart here.

Consider three molecules from patent US20050214384A1, “Chromium compositions and methods for using the same for inhibiting drug-induced insulin resistance” (priority 2002, published 2005).

The subject of data set [1] is rats. The following applies: cited from earlier work.
Data set [2] deals with subjects taking statin drugs. Description: Clinical trial of chromium picolinate on statin-induced insulin resistance (Example 1). The format is in vivo, human. The following applies: 400 μg chromium, one capsule a day orally, approximately six months, versus statin drug without chromium supplementation. On the procedure: The effect of a chromium complex in inhibiting drug-induced insulin resistance is evaluated. Specifically, the effects of chromium picolinate on insulin sensitivity and vascular reactivity in subjects taking statin drugs are evaluated.
A clinical trial is initiated which includes approximately 80 male and female subjects between the ages of 35 and 65. The subject population is characterized as individuals suffering from moderate hypercholesterolemia and moderate high blood pressure. All subjects have been diagnosed with hypercholesterolemia. LDLC based on 75th percentile (>140-165 mg/dL) and HDL-C: <30 mg/dL. […]
Study visits are scheduled at the start of the study to record baseline information on the subjects and every two weeks thereafter. The following physiological conditions are measured prior to administration of the supplement as a baseline and at regular intervals during the course of the study: Glycated hemoglobin, fasting insulin, fasting plasma glucose levels, total cholesterol, triglycerides, LDL, HDL, urinalysis (routine), CBC, and serum chemistry, as well as blood pressure and body weight. In addition, insulin sensitivity is measured according to the euglycemic-hyperinsulinemic glucose clamp technique specified by R. A. DeFronzo et al. Glucose Clamp Technique: A Method for Quantifying Insulin Secretion and Resistance, 237 Am. […]

The test system of data set [3] is rats. The following applies: oral CrCl3; cited from earlier work.

As for chromium picolinate, the toxic effects entry in data set [1] (rat, in vivo) is “without toxic effects”. The “incidence of drug-induced insulin resistance” value in data set [2] is on record as “lower incidence of drug-induced insulin resistance”.

On to `[Cl][Cr]([Cl])[Cl]` [chromium chloride], for which the toxic effects result in data set [1] (levels several thousand times the upper limit of the ESADDI for chromium for humans (based on body weight)) is recorded as “without toxic effects”. `CC(=O)Oc1ccccc1C(=O)O` [aspirin]: in data set [3], the “effect on chromium absorption” value is “facilitated”.
